Literature values in publication PMC6738130 (OncoTargets and therapy, 2019).

What was measured:
tumor = details: 5 nmol/kg SkQ1 per day in drinking water
[1] = driven by mitochondrial inner membrane potential (ΔΨ=140–180 mV)

Accumulation into the mitochondrial matrix [1]	Compound	Effect on level of ROS and tumor formation (tumor)
–	CC1=C(C)C(=O)C(CCCCCCCCCC[P+](c2ccccc2)(c2ccccc2)c2ccccc2)=CC1=O.[Br-] [SkQ1]	reduced the level of ROS prevented the formation of a tumor
several hundred-fold	COC1=C(OC)C(=O)C(CCCCCCCCCC[P+](c2ccccc2)(c2ccccc2)c2ccccc2)=C(C)C1=O [MitoQ, mitoquinone]	–
